# Laboratory results reported in ChEMBL document CHEMBL1147125, “Microbial transformation of (-)-guaiol and antibacterial activity of its transformed products” (2007).
# How the values were obtained:
# [1] = system: Pseudomonas aeruginosa; assay: Antibacterial activity against Pseudomonas aeruginosa at 100 ug/100 uL after 24 hrs; assay type: functional
# [2] = system: Shigella flexneri; assay: Antibacterial activity against Shigella flexneri at 100 ug/100 uL after 24 hrs; assay type: functional
# [3] = system: Bacillus subtilis; assay: Antibacterial activity against Bacillus subtils at 100 ug/100 uL after 24 hrs; assay type: functional
# [4] = system: Salmonella typhi; assay: Antibacterial activity against Salmonella typhi at 100 ug/100 uL after 24 hrs; assay type: functional, Salmonella enterica subsp. enterica serovar Typhi
# [5] = system: Staphylococcus aureus; assay: Antibacterial activity against Staphylococcus aureus at 100 ug/100 uL after 24 hrs; assay type: functional
# [6] = system: Escherichia coli; assay: Antibacterial activity against Escherichia coli at 100 ug/100 uL after 24 hrs; assay type: functional
SMILES,inhibition zone (IZ) [1],inhibition zone (IZ) [2],inhibition zone (IZ) [3],inhibition zone (IZ) [4],inhibition zone (IZ) [5],inhibition zone (IZ) [6]
C[C@H]1CC[C@@H](C(C)(C)O)C(=O)C2=C1CC[C@@H]2C,13 mm,10 mm,11 mm,,,
C[C@@H]1C2=CC[C@H](C)[C@@H]2C[C@H](C(C)(C)O)C[C@@H]1O,20 mm,,,16 mm,,
C[C@@H]1C2=C(C[C@H](C(C)(C)O)C[C@H]1O)[C@@H](C)[C@@H](O)C2,17 mm,,,15 mm,20 mm,
C[C@H]1CC[C@@H](C(C)(C)O)C[C@@H]2C1=CC(=O)[C@@H]2C,13 mm,,11 mm,,,
C[C@@H]1[C@@H]2C[C@H](C(C)(C)O)CC[C@H](C)C2=C[C@@H]1O,20 mm,,,15 mm,,
C[C@H]1CC[C@@H](C(C)(C)O)CC2=C1CC[C@@H]2C [GUAIOL],17 mm,17 mm,15 mm,24 mm,,16 mm
C[C@@H](O)[C@H]1C(=O)N2C(C(=O)O)=C(SCCNC=N)C[C@H]12 [IMIPENEM ANHYDROUS],24 mm,27 mm,33 mm,25 mm,33 mm,30 mm
